Reference: PubChem BioAssay AID1745844 (Carcinogenic Potency Database (CPDB), 2022)
Where “and” joins values, the source holds several entries; their conditions need not be identical. Equal values may be shown once. Calls of active or inactive are those of the source. How the calls were made is not given here.

Test system: rodent lifetime carcinogenesis bioassay, tumor incidence TD50
Test: carcinogenic potency in animals, long-term in vivo studies, CPDB compilation (AID 1745844)

## Cc1nc(N)cc2[nH]c3ccccc3c12
mouse, strain CDF1, females, in feed, site: liver, lesion: hepatocellular carcinoma, dosed 88 weeks, study length 88 weeks
  TD50: 6.81 mg/kg/day
mouse, strain CDF1, males, in feed, site: liver, lesion: hepatocellular carcinoma, dosed 88 weeks, study length 88 weeks
  TD50: 88.2 mg/kg/day
mouse, strain CDF1, males, in feed, site: liver, lesion: several types, types named in the paper, dosed 88 weeks, study length 88 weeks
  TD50: 83.2 mg/kg/day
mouse, strain CDF1, males, in feed, site: lung, lesion: adenocarcinoma, dosed 88 weeks, study length 88 weeks
  TD50: 81.1 mg/kg/day
mouse, strain CDF1, males, in feed, site: lung, lesion: adenoma, dosed 88 weeks, study length 88 weeks
  TD50: 224 mg/kg/day
rat, strain ACI, females, in feed, site: ileum, lesion: adenoma, dosed 124 weeks, study length 124 weeks
  TD50: 41.4 mg/kg/day
rat, strain ACI, females, in feed, site: jejunum, lesion: adenocarcinoma, dosed 124 weeks, study length 124 weeks
  TD50: 41.4 mg/kg/day
rat, strain ACI, females, in feed, site: liver, lesion: hemangioendothelial sarcoma, dosed 124 weeks, study length 124 weeks
  TD50: 41.4 mg/kg/day
rat, strain ACI, females, in feed, site: liver, lesion: neoplastic nodule, dosed 124 weeks, study length 124 weeks
  TD50: 4.43 mg/kg/day
rat, strain ACI, females, in feed, site: liver, lesion: several types, types named in the paper, dosed 124 weeks, study length 124 weeks
  TD50: 4.43 mg/kg/day
rat, strain F344/DuCrj, females, in feed, site: all sites, lesion: malignant lymphoma, dosed 112 weeks, study length 112 weeks
  TD50: 29 mg/kg/day
rat, strain F344/DuCrj, females, in feed, site: clitoral gland, lesion: adenocarcinoma, dosed 112 weeks, study length 112 weeks
  TD50: 75.5 mg/kg/day
rat, strain F344/DuCrj, females, in feed, site: clitoral gland, lesion: adenoma, dosed 112 weeks, study length 112 weeks
  TD50: 12.8 mg/kg/day
rat, strain F344/DuCrj, females, in feed, site: clitoral gland, lesion: several types, types named in the paper, dosed 112 weeks, study length 112 weeks
  TD50: 9.42 mg/kg/day
rat, strain F344/DuCrj, females, in feed, site: liver, lesion: hepatocellular adenoma, dosed 112 weeks, study length 112 weeks
  TD50: 74.3 mg/kg/day
rat, strain F344/DuCrj, females, in feed, site: mammary gland, lesion: adenoma, dosed 112 weeks, study length 112 weeks
  TD50: 76.2 mg/kg/day
rat, strain F344/DuCrj, females, in feed, site: mammary gland, lesion: several types, types named in the paper, dosed 112 weeks, study length 112 weeks
  TD50: 9.78 mg/kg/day and 11.5 mg/kg/day
rat, strain F344/DuCrj, females, in feed, site: uterus, lesion: endometrial stromal polyp, dosed 112 weeks, study length 112 weeks
  TD50: 3.6 mg/kg/day
rat, strain F344/DuCrj, males, in feed, site: liver, lesion: hepatocellular adenoma, dosed 112 weeks, study length 112 weeks
  TD50: 10.7 mg/kg/day
rat, strain F344/DuCrj, males, in feed, site: mammary gland, lesion: several types, types named in the paper, dosed 112 weeks, study length 112 weeks
  TD50: 8.43 mg/kg/day
rat, strain F344/DuCrj, males, in feed, site: urinary bladder, lesion: several types, types named in the paper, dosed 112 weeks, study length 112 weeks
  TD50: 9.72 mg/kg/day
rat, strain F344/DuCrj, males, in feed, site: urinary bladder, lesion: transitional-cell carcinoma, dosed 112 weeks, study length 112 weeks
  TD50: 59.9 mg/kg/day
rat, strain F344/DuCrj, males, in feed, site: urinary bladder, lesion: transitional-cell papilloma, dosed 112 weeks, study length 112 weeks
  TD50: 12.3 mg/kg/day

## CCCC1O[C@@H]2C[C@H]3[C@@H]4CCC5=CC(=O)C=C[C@]5(C)[C@H]4[C@@H](O)C[C@]3(C)[C@]2(C(=O)CO)O1 (stereo partly drawn)
rat, strain Charles River CD (Sprague-Dawley), males, in drinking water, site: liver, lesion: hepatocellular adenoma, dosed 104 weeks, study length 104 weeks
  TD50: 0.491 mg/kg/day
rat, strain Charles River CD (Sprague-Dawley), males, in drinking water, site: liver, lesion: hepatocellular carcinoma, dosed 104 weeks, study length 104 weeks
  TD50: 0.822 mg/kg/day
rat, strain Charles River CD (Sprague-Dawley), males, in drinking water, site: liver, lesion: several types, types named in the paper, dosed 104 weeks, study length 104 weeks
  TD50: 0.291 mg/kg/day

## CC=CC(=O)Oc1c(C(C)CCCCCC)cc([N+](=O)[O-])cc1[N+](=O)[O-] (stereo not drawn)
mouse, strain B6AKF1, females, oral dosing, site: any site (literature study), lesion: several types, types named in the paper, dosed 76 weeks, study length 76 weeks
  carcinogen call: negative (inactive)
mouse, strain B6AKF1, females, oral dosing, site: liver, lesion: hepatoma, dosed 76 weeks, study length 76 weeks
  carcinogen call: negative (inactive)
mouse, strain B6AKF1, females, oral dosing, site: lung, lesion: adenoma, dosed 76 weeks, study length 76 weeks
  carcinogen call: negative (inactive)
mouse, strain B6AKF1, males, oral dosing, site: any site (literature study), lesion: several types, types named in the paper, dosed 76 weeks, study length 76 weeks
  TD50: 11.9 mg/kg/day (inactive)
mouse, strain B6AKF1, males, oral dosing, site: liver, lesion: hepatoma, dosed 76 weeks, study length 76 weeks
  TD50: 2.07 mg/kg/day (inactive)
mouse, strain B6AKF1, males, oral dosing, site: lung, lesion: adenoma, dosed 76 weeks, study length 76 weeks
  TD50: 19.1 mg/kg/day (inactive)
mouse, strain B6C3F1, females, oral dosing, site: any site (literature study), lesion: several types, types named in the paper, dosed 76 weeks, study length 76 weeks
  TD50: 1.21 mg/kg/day (inactive)
mouse, strain B6C3F1, females, oral dosing, site: liver, lesion: hepatoma, dosed 76 weeks, study length 76 weeks
  TD50: 2.5 mg/kg/day (inactive)
mouse, strain B6C3F1, females, oral dosing, site: lung, lesion: several types, types named in the paper, dosed 76 weeks, study length 76 weeks
  carcinogen call: negative (inactive)
mouse, strain B6C3F1, males, oral dosing, site: any site (literature study), lesion: several types, types named in the paper, dosed 76 weeks, study length 76 weeks
  TD50: 0.405 mg/kg/day (inactive)
mouse, strain B6C3F1, males, oral dosing, site: liver, lesion: hepatoma, dosed 76 weeks, study length 76 weeks
  TD50: 2.32 mg/kg/day (inactive)
mouse, strain B6C3F1, males, oral dosing, site: lung, lesion: several types, types named in the paper, dosed 76 weeks, study length 76 weeks
  carcinogen call: negative (inactive)
